Legend:
T. mentagrophytes = assay: NORS antifungal effect on mycelial viability; type: cell-based, Trichophyton mentagrophytes; details: 30 minute exposure; 0.14% sodium nitrite (pH 6) or citric acid at pH 3.7 alone
T. rubrum = assay: NORS antifungal effect on mycelial viability; type: cell-based, Trichophyton rubrum; details: 30 minute exposure; 0.14% sodium nitrite (pH 6) or citric acid at pH 3.7 alone

SMILES | effect of single NORS component on mycelial viability (T. mentagrophytes) | effect of single NORS component on mycelial viability (T. rubrum)
O=NO [sodium nitrite] | Minimal to no effect | Minimal to no effect
O=C(O)CC(O)(CC(=O)O)C(=O)O [citric acid] | Minimal to no effect | Minimal to no effect
